Test results: patent US6479651B1, “Modified oligonucleotides, their preparation and their use” (Aventis Pharma Deutschland GmbH, priority 1994, dated 2002)

Row | melting point [°C] | SMILES
1 | 190 | O=C(Nc1ncnc2c1c(Cl)cn2[C@H]1C[C@H](O)[C@@H](CO)O1)c1ccccc1 [Compound 4, 4-Benzoylamino-5-chloro-7-(2-deoxy-β-D-erythropentofuranosyl)-7H-pyrrolo[2,3-d]pyrimidine]
2 | 198 | O=C(Nc1ncnc2c1c(Br)cn2[C@H]1C[C@H](O)[C@@H](CO)O1)c1ccccc1 [Compound 5, 4-Benzoylamino-5-bromo-7-(2-deoxy-β-D-erythropentofuranosyl)-7H-pyrrolo[2,3-d]pyrimidine]
3 | 196 | Cc1cn([C@H]2C[C@H](O)[C@@H](CO)O2)c2ncnc(NC(=O)c3ccccc3)c12 [Compound 6, 4-Benzoylamino-7-(2-deoxy-β-D-erythropentofuranosyl)-5-methyl-7H-pyrrolo[2,3-d]pyrimidine]
4 | 194 | Nc1ncnc2c1c(I)cn2[C@H]1C[C@H](O)[C@@H](CO)O1 [Compound 14, 4-Amino-7-(2-deoxy-β-D-erythropentofuranosyl)-5-iodo-7H-pyrrolo [2,3-d]pyrimidine]
5 | 127 to 128 | COc1nc(NC=O)nc2c1c(Cl)c(Cl)n2[C@H]1C[C@H](OC(=O)C(C)C)[C@@H](COC(=O)C(C)C)O1 [Compound 49, 7-[2-Deoxy-3,5-di-O-(2-methylpropionyl)-β-D-erythropentofuranosyl]-5,6-dichloro-2-[(formyl)amino]-4-methoxy-7H-pyrrolo[2,3-d]pyrimidine]
6 | 218 to 220 | Nc1nc2c(c(I)cn2[C@H]2C[C@H](O)[C@@H](CO)O2)c(=O)[nH]1 [Compound 58, 2-Amino-7-(2-deoxy-β-D-erythropentofuranosyl)-5-iodo-3,7-dihydro-4H-pyrrolo[2,3-d]pyrimidin-4-one]
